In patent US20240182428A1, “PRODRUG OF CELECOXIB, PREPARATION METHOD THEREFOR AND APPLICATION THEREOF” (SHANGHAI INNOFORTUNE BOITECH CO. LTD., priority 2021, published 2024):
In brackets after ≈: the same amount, converted by molar mass. Where two headings read alike, the source gives them in different places. Values belong to the compound of their own block, whether it stands above or below them.

What was measured:
[1] = Solubility of SZY1907-P3 prototype and salt forms at different pH values
[2] = Table 1; cited from earlier work
[3] = Ocular pharmacokinetic test: celecoxib content in eye tissues after ocular administration; type: in vivo, New Zealand rabbit; details: after ocular administration of eye drops
Text: To compare the content of the active compound celecoxib in each eye tissue to screen out lead compound with excellent pharmacokinetic characteristics after the ocular administration of SZY1907-P3, SZY1907-P4 and celecoxib in New Zealand rabbits.
Grouping: 9 male New Zealand rabbits were randomly divided into 3 groups of 3 animals each.
Dosage: According to the formulation of Guangzhou Zhongshan Ophthalmic Center, the concentration of SZY1907-P3/P4 in eye drops is 0.1%. Thus, the dose of SZY1907-P3/P4 was set to 0.100 mg/New Zealand rabbit and the dose of celecoxib was 0.075 mg/New Zealand rabbit (close to the equimolar dose of SZY1907-P3/P4).
The administration method was consistent with the clinical method, which was, ophthalmic administration, and the rabbit left and right eyes were simultaneously administrated.
0.1% of SZY1907-P3 eye drops: 0.01000 g of SZY1907-P3 was weighed, 0.00500 g of Tween-80 and 0.04500 g of polyoxyethylene 40 hydrogenated castor oil were added, and stirred with a glass rod until the solution was in an emulsion shape. 5 mL of distilled water was added slowly while stirring, dissolved for later use. 0.09000 g of sodium chloride and 0.00125 g of 80% benzalkonium chloride were weighed, 2 mL of distilled water was added, and stirred to dissolve. The two solutions was combined and adjusted the volume to 10 mL. […]

[4] = pH 7
[5] = Stability (purity) of the prototype at different pH values; type: physicochemical

Compound: NCCCCC(N)C(=O)O (centres unmarked) [lysinate]
- Pka [2]: 2.16
- Solubility ([1]; pH value 1): 40470 µg/mL
- Solubility ([1]; pH value 2): 80 µg/mL
- Solubility ([1]; pH value 4): 100 µg/mL
- Solubility ([1]; pH value 6): 90 µg/mL
- Solubility ([1]; pH value 7): 90 µg/mL
- Solubility ([1]; pH value 8): 100 µg/mL

Compound: Cc1ccc(-c2cc(C(F)(F)F)nn2-c2ccc(S(N)(=O)=O)cc2)cc1 [Celecoxib]
- Drug concentration / distribution in ocular tissues (cornea, conjunctiva and aqueous humor), in words [3]: relatively low

Compound: CNCCC(=O)NS(=O)(=O)c1ccc(-n2nc(C(F)(F)F)cc2-c2ccc(C)cc2)cc1 [SZY1907-P4]
- Drug concentration / distribution in ocular tissues (cornea, conjunctiva and aqueous humor), in words [3]: almost not detected

Compound: fumarate
- Solubility [4]: 90 µg/mL
- Pka [2]: 3.03

Compound: Cc1ccc(-c2cc(C(F)(F)F)nn2-c2ccc(S(=O)(=O)NC(=O)CCN)cc2)cc1 [SZY1907-P3]
- Stability under storage conditions, in words [5]: relatively stable under storage conditions
- Solubility, in words [1]: proper solubility
- pH dependence of solubility, in words [1]: a certain pH dependence

Results, then the compound that gave them:

- Solubility ([1]; pH value 1): 42900 µg/mL
- Solubility ([1]; pH value 2): 25720 µg/mL
- Solubility ([1]; pH value 4): 1280 µg/mL
- Solubility ([1]; pH value 6): 470 µg/mL
- Solubility ([1]; pH value 7): 90 µg/mL
- Solubility ([1]; pH value 8): 100 µg/mL
Compound: phosphate

- Purity at Day 0 ([5]; pH value 5.5-6.0): 99.85%
- Purity at Day 1 ([5]; pH value 5.5-6.0): 99.32%
- Purity at Day 2 ([5]; pH value 5.5-6.0): 99.67%
- Purity at Day 5 ([5]; pH value 5.5-6.0): 99.63%
- Purity at Day 0 ([5]; pH value 6.5-7.0): 99.88%
- Purity at Day 1 ([5]; pH value 6.5-7.0): 100.00%
- Purity at Day 2 ([5]; pH value 6.5-7.0): 99.74%
- Purity at Day 5 ([5]; pH value 6.5-7.0): 99.87%
- Purity at Day 0 ([5]; pH value 7.0-7.5): 99.81%
- Purity at Day 1 ([5]; pH value 7.0-7.5): 100.00%
- Purity at Day 2 ([5]; pH value 7.0-7.5): 99.70%
- Purity at Day 5 ([5]; pH value 7.0-7.5): 99.84%
- Solubility (physchem; aqueous buffer): 100 µg/mL (≈ 221 µM)
- Solubility (physchem; pH 1, simulated gastric fluid): 83500 µg/mL (≈ 184000 µM)
- Solubility (physchem; pH 2, simulated gastric fluid): 1020 µg/mL (≈ 2250 µM)
- Solubility (physchem; pH 4, aqueous buffer): 80 µg/mL (≈ 177 µM)
- Solubility (physchem; pH 6, aqueous buffer): 80 µg/mL (≈ 177 µM)
- Solubility (physchem; pH 7, aqueous buffer): 90 µg/mL (≈ 199 µM)
- Solubility (physchem; pH 8, aqueous buffer): 80 µg/mL (≈ 177 µM)
- Solubility ([1]; Table 2, pH value 6.5-7.0): 90 µg/mL
- Solubility ([1]; Table 2, pH value 7.0-7.5): 100 µg/mL
Compound: Cc1ccc(-c2cc(C(F)(F)F)nn2-c2ccc(S(=O)(=O)NC(=O)CCN)cc2)cc1 [prototype]
